Reference: US7906105B1, “Zinc-activated contrast agents” (Northwestern University, priority 2006, dated 2011)
“And” between values parts separate entries of the source, which are not always exact repeats. Equal values may be shown once. “Also recorded” adds a separate entry of the source.

Tests used:
[1] = Competitive binding assay with fluorophore FluoZin-1; conditions: competitive assay against FluoZin-1; read-out: dissociation constant (Kd) of the Gd(III)-Zn(II) complex
Protocol: (§1) To test the binding ability of the acetate ligands to Zn(II), relaxivity measurements of 1 were measured in the absence and presence of ZnCl2. The relaxitivity of 1 in HEPES buffer without zinc was 2.34 mM^−1 s^−1, as is typical for small molecule contrast agents for which q=0 (8). […] As ZnCl2 was added, the relaxivity increased to 5.3 mM^−1 s^−1 indicative of a q=1 complex (See FIG. 3, left). Similar studies were conducted using MgCl2 and CaCl2 to test for selectivity of the ligand for zinc over other dications known to have higher cellular concentrations and which have similar binding affinities for carboxylic acids. […] A competitive binding assay gave a dissociation constant of 2.38×10^−4 M for the Gd(III)-Zn(II) complex.
(§2) To evaluate the effectiveness of Compound 1 as an in vivo probe, the stability of Zn-Compound 1 was investigated. Using the commercially available fluorophore FluoZinTM-1 (Invitrogen), the binding constant of zinc can be determined by a competitive assay. Since the Zn(II)-binding regions of the dye and Compound 1 are identical, similar binding constants are to be expected. […] To confirm there was a measurable difference between zinc concentrations, T1 was measured on these same samples on a 14.1 T magnet and on a 1.4 T magnet.

[2] = T1-weighted phantom MR images with Ca(II); conditions: 4.7 T magnet; 1 mM Compound 1 in HEPES, 1 mM CaCl2
Protocol: (§3) A. Compound 1 selectivity. Images of a 1 mM solution of Compound 1 in HEPES buffer. (A) HEPES buffer only; (B) Compound 1; (C) Compound 1 with 1 mM ZnCl2; (D) Compound 1 with 1 mM MgCl2; (E) Compound 1 with 1 mM CaCl2. B. Compound 1 sensitivity. Images of a 1 mM solution of Compound 1 in HEPES buffer with varying zinc concentrations. (A) 0 μM Zn; (B) 50 μM Zn; (C) 100 μM Zn; (D) 500 μM Zn; (E) 1 mM Zn. (TR=100.0 ms, TE=14.3 ms, FOV=2.5/2.0 cm, data matrix=256×256. TR=repetition time; TE=echo time; FOV=field of view).
as §2

[3] = Stability in 0.1 M phosphate buffer (relaxivity, ICP of supernatant); format: physicochemical
Protocol: Compound 1 was monitored for 24 hours in a 0.1 M phosphate buffer to determine its stability in solution. Due to the low solubility of GdPO4 (Ksp=10^−22.26 mol^2/L^2) any dissociation of gadolinium from Compound 1 will precipitate, causing a subsequent decrease in relaxivity which was not seen. A more accurate measurement of the amount of gadolinium dissociation can be made from centrifuging the samples and collecting aliquots of the supernatant for evaluation of gadolinium concentration via ICP.

NIH/3T3 cells [4] = assay: Cell cytotoxicity, trypan blue staining; format: cell-based; design: cell viability: dose or concentration left out as unconfirmed
Protocol: (§4) The cell doubling time for NIH/3T3 cells is around 16 hours and one can see over twice as many cells at 24 hours than at 8 hours as one would expect, implying greater than 99% cell viability. B. Compound 1 is taken up at a constant rate for up to 8 hours.
(§5) Compound 1 was effectively taken up by NIH/3T3 cells at a constant rate for the first 8 hours of treatment. The maximal intracellular concentration of Compound 1 of approximately 10^−14 mol Gd/cell is achieved at 8 hours and maintained up to 24 hours (FIG. 6 B). NIH/3T3 cells were seeded at 10^5 cells per well in 24-well tissue culture plates with Dulbecco's modified Eagle's medium (DMEM) containing 10% bovine calf serum and incubated overnight in a 5% CO2 incubator at 37° C. The media was then changed and Compound 1 added at a concentration of 500 μM. After 2, 4, 8, and 24 hours, cells were washed three times with 1×PBS and exposed to 250 μL of 0.25% trypsin and harvested. Cells were diluted with an equal volume of 0.4% trypan blue and counted on a hemacytometer. For cellular uptake of Compound 1 into cells, cells were incubated with concentrated nitric acid at 70° C. for 3 hours. The dissolved cells were diluted into a 5 ml, solution with 3% nitric acid and 5 ppb of an indium internal standard. The concentration of Gd(III) was then determined using ICP-MS (induction coupled plasma mass spectrometry).

[5] = Relaxivity measurements in the absence and presence of ZnCl2; format: physicochemical
Protocol: (§6) Left: Relaxivity of Compound 1 in the presence of XCl2, where X=Zn, Ca, and Mg. All solutions were made in 100 mM KCl/100 mM HEPES at ph=7.4. Right: Relaxivity of Zn-1, 3:1 (Zn:Gd), following titration of EDTA.
as §1
After 1 was left to equilibrate at 37° C. for 3 days with an excess of zinc, a relaxivity of 9.2 mM^−1 s^−1 was measured, indicating the species has a value of q=2. This measurement corresponds well to a structure proposed by embodiments of the present invention in which the pendant ligands have left the gadolinium for the zinc, leaving two open coordination sites for water to bind. […] Although an understanding of the mechanism is not necessary to practice the present invention and the present invention is not limited to any particular mechanism of action, in some embodiments, this is due to sequestration of Zn(II) by EDTA which leaves the carboxylic acids available to bind to Gd(III) and close the coordination sites (See FIG. 3, right). Adding excess EDTA had no effect on the relaxivity, providing that the Gd(III) ions are not sequestered by EDTA as expected given the high binding constant (˜10^16) for Gd-EDTA for which q=1.
Proton relaxivity measurements on Compound 1 were also performed while titrating with increasing amounts of Zn(II) up to 1:1.4 (Gd: Zn) equivalents. […] The observed linear dependence also rules out the possibility of a 2:1 (Gd:Zn) complex formation.

[6] = T1-weighted phantom MR images with Zn(II)
Protocol: as §3, §2

[7] = T1-weighted phantom MR images with Mg(II); conditions: 4.7 T magnet; 1 mM Compound 1 in HEPES, 1 mM MgCl2
Protocol: as §3, §2

[8] = Relaxivity measurements with MgCl2; format: physicochemical; conditions: MgCl2, even at 3-fold excess of the dication
Protocol: as §6, §1

NIH/3T3 cells [9] = assay: Cellular uptake, Gd(III) by ICP-MS; format: cell-based; conditions: 500 μM
Protocol: as §4, §5

[10] = Relaxivity measurements with CaCl2; format: physicochemical; conditions: CaCl2, even at 3-fold excess of the dication
Protocol: as §6, §1

[11] = Testing of further agents for Zn(II) detection/activation (method not described)
Excerpt: [drawing 1] wherein R═(CH2)n(n=1 or 2).

## Cc1cccc(OCCCN2CCN(CC(=O)[O-])CCN(CC(=O)[O-])CCN(CC(=O)[O-])CC2)c1N(CC(=O)[O-])CC(=O)[O-].[Gd+3] [Compound 1]
[1]
  Kd: 238 µM and 240 µM
[2]
  MR image difference with Ca(II): no discernible difference
[3]; 0.1 M phosphate buffer, 24 hours
  decrease in relaxivity (Gd dissociation/precipitation): not seen
[3]; 0.1 M phosphate buffer, time-points up to 24 hours
  change in [Gd] of supernatant (ICP): no significant change
[3]; suggested from phosphate buffer stability
  dissociation constant of the gadolinium complex: on the order of that seen for Gd-DO3A
NIH/3T3 cells [4]; 0.5 mM, up to 24 hours, trypan blue staining
  cell death: no observable cell death
NIH/3T3 cells [4]; 24 hours
  cell viability: greater than 99%
NIH/3T3 cells [4]; incubation with Compound 1 up to 24 hours
  cell proliferation: Normal proliferation; also recorded: proliferated exponentially at the expected rate
[5]; HEPES buffer without zinc
  relaxivity: 2.34 mM⁻¹ s⁻¹
[5]; HEPES buffer, ZnCl2 added
  relaxivity: 5.3 mM⁻¹ s⁻¹
[5]; equilibrated at 37° C. for 3 days with an excess of zinc
  relaxivity: 9.2 mM⁻¹ s⁻¹
[5]; in the presence of Zn(II)
  increase in relaxivity: > 100%
[6]; 4.7 T magnet, 1 mM Compound 1 in HEPES, 1 mM ZnCl2
  MR image intensity in the presence of Zn(II): increase in intensity
[6]; in vitro MR images
  levels of Zn(II) that can be detected: hundreds of micromolar
[6]; phantom images, 1 mM Compound 1, varying zinc concentrations
  visualization of difference between 100 μM and 500 μM zinc: easily visualize the difference
[7]
  MR image difference with Mg(II): no discernible difference
[8]
  change in relaxivity values: no significant change
NIH/3T3 cells [9]; first 8 hours of treatment
  uptake rate: constant rate
NIH/3T3 cells [9]; achieved at 8 hours and maintained up to 24 hours
  maximal intracellular concentration: approximately 10^−14 mol Gd/cell
[10]
  change in relaxivity values: no significant change

## Cc1cccc(OCCN2CCN(CC(=O)[O-])CCN(CC(=O)[O-])CCN(CC(=O)[O-])CC2)c1N(CC(=O)[O-])CC(=O)[O-].[Gd+3] [second agent]
[11]
  activation towards Zn(II): little activation
